Read-outs that look alike come from different tables or passages of the source.
Experiments:
[1] = 20° C., cited from earlier work
[2] = system: Black nightshade (Solanum nigrum L.; SOLNI); settings: Dicamba DMA-salt, Banvel, 16 DAT
Procedure: Black nightshade (Solanum nigrum L.; SOLNI) was grown in a growth chamber under 14 h of light, at 18/12 (±0.5) ° C. (day/night) temperature, and in 70/80 (±5)% (day/night) relative humidity. Light was provided by high-pressure mercury lamps and fluorescent tubes to give 250 pmol m^−2 s^−1 at leaf level. The plants were grown in 11-cm-diam plastic pots filled with a mixture of sand and humic potting soil (1:2 by volume). The pots were placed on subirrigation matting, which was wetted daily with a half-strength nutrient solution. After emergence, the seedlings were thinned to one plant per pot for the efficacy experiments. Black nightshade was treated at the four-leaf stage. The fresh weights of the plants were measured 16 days after treatment (16 DAT).
The treatment solutions were applied with an air-pressured laboratory track sprayer having 1.2-mm nozzles fitted with a perforated (0.6 mm) whirling pin and delivering 200 L/ha at 303 kPa.
The experiment was conducted with four replicates per experiment according to a completely randomized design.

[3] = system: Wild oat (Avena fatua L.; AVEFA); test: adjuvant for Fenoxaprop-P-ethyl test; format: in vivo; settings: Puma EW, 21 DAT
Procedure: In this test the performance with Fenoxaprop-P-ethyl was looked at. Plant material. […] After emergence, the seedlings were thinned to four plants per pot for the efficacy experiments. The plants were treated at the three-leaf stage. The fresh weights of the plants were measured 21 days after treatment (21 DAT). […] The following herbicide was included in the treatment solutions: Fenoxaprop-P-ethyl, Puma EW formulation, 69 g a.i./L. […] Demineralized water was used as the carrier.

[4] = sub-optimal rate + N,N-bis(3-(dimethylamino)propyl)octanamide 0.25% (w/v)
[5] = sub-optimal rate, no adjuvant, average of four replicates

SMILES	log Kow ([1]; at pH 7)	Fresh Weight SOLNI (g) Herbicide + Adjuvant [2, 4] [g]	Fresh weight SOLNI (g) Only herbicide [2, 5] [g]	log Kow ([1]; no pH given)	Fresh Weight Wild Oat (g) Herbicide + Compound [3, 4] [g]	Fresh weight Wild Oat (g) Only herbicide [3, 5] [g]
COc1c(Cl)ccc(Cl)c1C(=O)O [Dicamba]	−1.9	6.7	10.8			
CCOC(=O)[C@@H](C)Oc1ccc(Oc2nc3ccc(Cl)cc3o2)cc1 [Fenoxaprop-P-ethyl]				4.3	1.4	16.4

From patent US9992994B2, “Agricultural and detergent compositions containing a tertiary amide as adjuvant or as surfactant” (Taminco BVBA, priority 2011, dated 2018)
